Literature values in US7892838B2, “Method for the in vivo modification of the synthesis activity of a metabolite by means of the modification of a gene the activity of which is not the original activity” (Institut Pasteur, priority 2003, dated 2011).

Test system: HIV (human immunodeficiency virus)

Row | Structure (SMILES) | inhibition of the replication of HIV
1 | Nc1ncnc2c1ncn2[C@H]1CC[C@@H](CO)O1 [ddA, 2′,3′-dideoxyadenosine] | effectively inhibit the replication of HIV
2 | OC[C@@H]1CC[C@H](n2cnc3c(O)ncnc32)O1 [ddI, 2′,3′-dideoxyinosine] | effectively inhibit the replication of HIV
